# Key:
# [1] = system: T-47D; experiment: Caspase cascade activation (N-(Ac-DEVD)-N'-ethoxycarbonyl-R110 fluorogenic substrate) in T-47D cells; type: cell-based, human; conditions: 48 h incubation; for Caspase activity Ratio (net RFU of test compound to control): 0.016 to 10 μM final; for EC50: Homo sapiens, T47D, read-out: Caspase potency EC50
# Method: (§1) Human breast cancer cell lines T47D and ZR-75-1 were grown according to media component mixtures designated by American Type Culture Collection+10% FCS (Invitrogen Corporation), in a 5% CO2-95% humidity incubator at 37° C. T-47D and ZR-75-1 cells were maintained at a cell density between 50 and 80% confluency at a cell density of 0.1 to 0.6×10^6 cells/mL. Cells were harvested at 600×g and resuspended at 0.65×10^6 cells/mL into appropriate media+10% FCS. An aliquot of 45 μL of cells was added to a well of a 96-well microtiter plate containing 2.5 μL of a 10% DMSO in RPMI-1640 media solution containing 0.16 to 100 μM of 4-(bicyclo[2.2.1]hept-5-en-2-yl)-1-(pyridin-2-ylmethylidene)thiosemicarbazide or other test compound (0.016 to 10 μM final). An aliquot of 22.5 μL of cells was added to a well of a 384-well microtiter plate containing 2.5 μL of a 10% DMSO in RPMI-1640 media solution without test compound as the control sample. The samples were mixed by agitation and then incubated at 37° C. for 48 h in a 5% CO2-95% humidity incubator. After incubation, the samples were removed from the incubator and 25 μL of a solution containing 14 μM of N-(Ac-DEVD)-N′-ethoxycarbonyl-R110 (SEQ ID NO:1) fluorogenic substrate (Maxim Pharmaceuticals, Inc.; WO99/18856), 20% sucrose (Sigma), 20 mM DTT (Sigma), 200 mM NaCl (Sigma), 40 mM Na PIPES buffer pH 7.2 (Sigma), and 500 μg/ml lysolecithin (Calbiochem) was added. The samples were mixed by agitation and incubated at room temperature. Using a fluorescent plate reader (Model SpectraMax Gemini, Molecular Devices), an initial reading (T=0) was made approximately 1-2 min after addition of the substrate solution, employing excitation at 485 nm and emission at 530 nm, to determine the background fluorescence of the control sample. After the 3 h incubation, the samples were read for fluorescence as above (T=3 h).
# (§2) The Relative Fluorescence Unit values (RFU) were used to calculate the sample readings as follows:
# (§3) RFU(T=3 h)−Control RFU(T=0)=Net RFU(T=3 h)
# (§4) The activity of caspase cascade activation was determined by the ratio of the net RFU value for 4-(bicyclo[2.2.1]hept-5-en-2-yl)-1-(pyridin-2-ylmethylidene)thiosemicarbazide or other test compound to that of control samples. The EC50 (nM) was determined by a sigmoidal dose-response calculation (Prism 2.0, GraphPad Software Inc.).
# [2] = system: ZR-75-1; experiment: Caspase cascade activation (N-(Ac-DEVD)-N'-ethoxycarbonyl-R110 fluorogenic substrate) in ZR-75-1 cells; type: cell-based, human; conditions: 48 h incubation; for Caspase activity Ratio (net RFU of test compound to control): 0.016 to 10 μM final
# Method: as §1, §2, §3, §4
# [3] = system: T47-D; experiment: Cell proliferation assay (CellTiter 96 AQUEOUS One) GI50, T47-D; type: cell-based; conditions: Homo sapiens, T47D; T47-D cells, 48 h
# Method: (§5) All the cell lines were grown according to the conditions recommended by American Type Culture Collection. An aliquot of 90 μL of cells (2.2×10^4 cells/mL) was added to a well of a 96-well microtiter plate containing 10 μL of a 10% DMSO in RPMI-1640 media solution containing 1 nM to 100 μM of 4-(bicyclo[2.2.1]hept-5-en-2-yl)-1-(pyridin-2-ylmethylidene)thiosemicarbazide (0.1 nM to 10 μM final). An aliquot of 90 μL of cells was added to a well of a 96-well microtiter plate containing 10 μL of a 10% DMSO in RPMI-1640 media solution without compound as the control sample for maximal cell proliferation (AMax). The samples were mixed by agitation and then incubated at 37° C. for 48 h in a 5% CO2-95% humidity incubator. After incubation, the samples were removed from the incubator and 20 μL of CellTiter 96 AQUEOUS One Solution Cell Proliferation™ reagent (Promega) was added. […] Using an absorbance plate reader (Model 1420 Wallac Instruments), an initial reading (T=0) was made approximately 1-2 min after addition of the solution, employing absorbance at 490 nm. This determines the possible background absorbance of the test compounds. No absorbance for 4-(bicyclo[2.2.1]hept-5-en-2-yl)-1-(pyridin-2-ylmethylidene)thiosemicarbazide was found at 490 nm. After the 2-4 h incubation, the samples were read for absorbance as above (ATest). […]
# [4] = system: MCF-7; experiment: Cell proliferation assay GI50, MCF-7; type: cell-based; conditions: Homo sapiens, MCF7; MCF-7 cells, 48 h
# Method: as §5
# [5] = system: SK-Br-3; experiment: Cell proliferation assay GI50, SK-Br-3; type: cell-based; conditions: Homo sapiens; SK-Br-3 cells, 48 h
# Method: as §5
# [6] = system: MDA-MB-231; experiment: Cell proliferation assay GI50, MDA-MB-231; type: cell-based; conditions: Homo sapiens; MDA-MB-231 cells, 48 h
# Method: as §5
# [7] = system: PC-3; experiment: Cell proliferation assay GI50, PC-3; type: cell-based; conditions: Homo sapiens; PC-3 cells, 48 h
# Method: as §5
# [8] = system: HeLa; experiment: Cell proliferation assay GI50, HeLa; type: cell-based; conditions: Homo sapiens; HeLa cells, 48 h
# Method: as §5
# [9] = system: DLD-1; experiment: Cell proliferation assay GI50, DLD-1; type: cell-based; conditions: Homo sapiens; DLD-1 cells, 48 h
# Method: as §5
# [10] = system: NCI-H23; experiment: Cell proliferation assay GI50, NCI-H23; type: cell-based; conditions: Homo sapiens; NCI-H23 cells, 48 h
# Method: as §5
# [11] = system: K562; experiment: Cell proliferation assay GI50, K562; type: cell-based; conditions: Homo sapiens; K562 cells, 48 h
# Method: as §5
# [12] = system: P388; experiment: Cell proliferation assay GI50, drug sensitive P388; type: cell-based; conditions: Mus musculus; P388 (drug sensitive) cells
# Method: as §5
# [13] = system: P388/ADR; experiment: Cell proliferation assay GI50, drug resistant P388/ADR; type: cell-based; conditions: Mus musculus; P388/ADR (drug resistant) cells
# Method: as §5
EC50 [1] [nM],"EC50 ([2]; Homo sapiens, read-out: Caspase potency EC50) [nM]",GI50 [4] [nM],GI50 [5] [nM],GI50 [6] [nM],GI50 [7] [nM],GI50 [8] [nM],GI50 [9] [nM],GI50 [10] [nM],GI50 [11] [nM],GI50 [12] [nM],GI50 [13] [nM],Caspase potency EC50 [2],Structure (SMILES),Caspase activity Ratio (net RFU of test compound to control) [1],Caspase activity Ratio (net RFU of test compound to control) [2],GI50 [3] [nM]
360,862,7,5,30,30,60,90,30,50,20,20,–,"S=C(NN=Cc1ccccn1)NC1CC2C=CC1C2 (stereo not shown) [Example 16, 4-(Bicyclo[2.2.1]hept-5-en-2-yl)-1-(pyridin-2-ylmethylidene)thiosemicarbazide]",3.5,3.0,5
866,–,300,750,–,–,–,1700,3000,3000,–,–,INACTIVE,"Cc1cccc(C=NNC(=S)NC2CC3C=CC2C3)n1 (stereo not shown) [Example 17, 4-(Bicyclo[2.2.1]hept-5-en-2-yl)-1-(6-methyl-pyridin-2-ylmethylidene)thiosemicarbazide]",3.3,2.5,1000
